Laboratory results reported in patent US20260116920A1, “HUMAN TRANSFERRIN RECEPTOR BINDING PEPTIDE” (PEPTIDREAM INC., priority 2021, published 2026).
Positions of bridges follow the written chain, without caps; N, C: chain ends. Non-standard residues stand in square brackets, D forms with d. Residues, ends and D or L forms follow the SMILES beside them. *: point of attachment. Trp(1-CH2COOH) = N[C@@H](Cc1cn(CC(=O)O)c2ccccc12)C(=O)O; Phe(3-COOH) = N[C@@H](Cc1cccc(C(=O)O)c1)C(=O)O; NH(CH2CH2O)8Me = COCCOCCOCCOCCOCCOCCOCCOCCN*; NMePhe(3-Cl) = CN[C@@H](Cc1cccc(Cl)c1)C(=O)O; 3Pal(6-NH2) = Nc1ccc(C[C@H](N)C(=O)O)cn1; NMeY = CN[C@@H](Cc1ccc(O)cc1)C(=O)O; 3Pal = N[C@@H](Cc1cccnc1)C(=O)O; 4Pal = N[C@@H](Cc1ccncc1)C(=O)O; PEG4 = NCCOCCOCCOCCOCCC(=O)O; Carboxymethyl = O=C(O)C*

target: T1, human transferrin receptor (hTfR) (Homo sapiens, UniProt P02786); assay: Evaluation of molecular interaction between transferrin receptor (hTfR) and peptide using surface plasmon resonance (SPR); type: binding; conditions: surface plasmon resonance, binding to hTfR; KD class symbol; read-out: SPR (KD value)
T1 construct: made in house
Procedure, shortened: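 Single-cycle SPR kinetics, KD by least-squares sensorgram fitting, with peptide series of 100, 50, 25, 10 and 5 nM. Running buffer: 10 mM HEPES pH 8.0, 150 mM NaCl, 0.05% Tween 20, 0.1% BSA, 1.0% DMSO. Surface: hTfR dimer covalently coupled (EDC/NHS) onto Ni-NTA chip.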

T1 sequence (P02786 89-760 limits assumed): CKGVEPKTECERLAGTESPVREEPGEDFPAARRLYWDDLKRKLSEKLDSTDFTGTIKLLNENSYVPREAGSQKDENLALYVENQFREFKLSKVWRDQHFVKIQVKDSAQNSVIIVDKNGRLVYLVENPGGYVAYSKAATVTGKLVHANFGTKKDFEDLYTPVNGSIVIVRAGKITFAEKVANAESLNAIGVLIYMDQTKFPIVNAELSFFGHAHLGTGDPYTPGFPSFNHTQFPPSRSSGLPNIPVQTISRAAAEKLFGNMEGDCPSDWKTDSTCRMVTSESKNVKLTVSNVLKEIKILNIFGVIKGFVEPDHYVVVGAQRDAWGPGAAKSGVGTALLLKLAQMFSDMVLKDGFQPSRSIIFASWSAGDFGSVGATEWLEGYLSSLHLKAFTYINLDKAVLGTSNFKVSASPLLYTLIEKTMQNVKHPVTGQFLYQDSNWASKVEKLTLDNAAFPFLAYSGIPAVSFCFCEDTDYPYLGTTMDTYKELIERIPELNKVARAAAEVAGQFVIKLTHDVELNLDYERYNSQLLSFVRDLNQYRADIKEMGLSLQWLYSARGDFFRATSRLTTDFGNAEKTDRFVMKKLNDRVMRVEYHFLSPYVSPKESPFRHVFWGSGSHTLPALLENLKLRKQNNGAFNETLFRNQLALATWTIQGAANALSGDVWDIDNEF

Row | Compound | Kd [µM]
1 | CC[C@H](C)[C@@H]1NC(=O)[C@H](Cc2ccc(OC)cc2)NC(=O)[C@H](Cc2ccc(O)cc2)NC(=O)[C@H](CC(N)=O)NC(=O)[C@H](Cc2cn(CC(=O)O)c3ccccc23)NC(=O)[C@H](C(C)C)NC(=O)[C@H](Cc2cccc(Cl)c2)N(C)C(=O)[C@H](C(C)C)NC(=O)[C@H](C)NC(=O)CSC[C@@H](C(=O)NCCOCCOCCOCCOCCC(N)=O)NC(=O)[C@H](Cc2ccc(O)cc2)N(C)C(=O)[C@H](Cc2ccncc2)NC(=O)[C@H](CCC(=O)NCCOCCOCCOCCOCCOCCOCCOCCOC)NC(=O)[C@H](CCCNC(=N)N)NC(=O)[C@H]([C@@H](C)CC)NC1=O [compound 78] ({CH2CO}-AV[NMePhe(3-Cl)]V[Trp(1-CH2COOH)]NYY(Me)IIRE(NH(CH2CH2O)8Me)[4Pal][NMeY]C[PEG4]-NH2; thioether N-15) | 0.001 to 0.1
2 | CC[C@H](C)[C@@H]1NC(=O)[C@H](Cc2cccnc2)NC(=O)[C@H](Cc2ccc(N)nc2)NC(=O)[C@H](CC(N)=O)NC(=O)[C@H](Cc2cn(CC(=O)O)c3ccccc23)NC(=O)[C@H](C(C)C)NC(=O)[C@H](Cc2cccc(Cl)c2)N(C)C(=O)[C@H](C(C)C)NC(=O)[C@H](C)NC(=O)CSC[C@@H](C(=O)NCCOCCOCCOCCOCCC(N)=O)NC(=O)[C@H](Cc2ccc(O)cc2)N(C)C(=O)[C@H](Cc2cccc(C(=O)O)c2)NC(=O)[C@H](CCCNC(=N)N)NC(=O)[C@H](CCCNC(=N)N)NC(=O)[C@H]([C@@H](C)CC)NC1=O [compound 79] ({CH2CO}-AV[NMePhe(3-Cl)]V[Trp(1-CH2COOH)]N[3Pal(6-NH2)][3Pal]IIRR[Phe(3-COOH)][NMeY]C[PEG4]-NH2; thioether N-15) | 0.001 to 0.1
3 | CC[C@H](C)[C@@H]1NC(=O)[C@H](Cc2ccc(OCC(=O)O)cc2)NC(=O)[C@H](Cc2ccc(N)nc2)NC(=O)[C@H](CC(N)=O)NC(=O)[C@H](Cc2cn(CC(=O)O)c3ccccc23)NC(=O)[C@H](C(C)C)NC(=O)[C@H](Cc2cccc(Cl)c2)N(C)C(=O)[C@H](C(C)C)NC(=O)[C@H](C)NC(=O)CSC[C@@H](C(=O)NCCOCCOCCOCCOCCC(N)=O)NC(=O)[C@H](Cc2ccc(O)cc2)N(C)C(=O)[C@H](Cc2ccncc2)NC(=O)[C@H](CCCNC(=N)N)NC(=O)[C@H](CCCNC(=N)N)NC(=O)[C@H]([C@@H](C)CC)NC1=O [compound 80] | 0.001 to 0.1
4 | CC[C@H](C)[C@@H]1NC(=O)[C@H](Cc2cccnc2)NC(=O)[C@H](Cc2ccc(O)cc2)NC(=O)[C@H](CC(N)=O)NC(=O)[C@H](Cc2cn(CC(=O)O)c3ccccc23)NC(=O)[C@H](C(C)C)NC(=O)[C@H](Cc2cccc(Cl)c2)N(C)C(=O)[C@H](C(C)C)NC(=O)[C@H](C)NC(=O)CSC[C@@H](C(=O)NCCOCCOCCOCCOCCC(N)=O)NC(=O)[C@H](Cc2ccc(O)cc2)N(C)C(=O)[C@H](Cc2ccncc2)NC(=O)[C@H](CCC(=O)NCCOCCOCCOCCOCCOCCOCCOCCOC)NC(=O)[C@H](CCCNC(=N)N)NC(=O)[C@H]([C@@H](C)CC)NC1=O [compound 83] ({CH2CO}-AV[NMePhe(3-Cl)]V[Trp(1-CH2COOH)]NY[3Pal]IIRE(NH(CH2CH2O)8Me)[4Pal][NMeY]C[PEG4]-NH2; thioether N-15) | 0.001 to 0.1
5 | CC[C@H](C)[C@@H]1NC(=O)[C@H](Cc2cccnc2)NC(=O)[C@H](Cc2ccc(O)cc2)NC(=O)[C@H](CC(N)=O)NC(=O)[C@H](Cc2cn(CC(=O)O)c3ccccc23)NC(=O)[C@H](C(C)C)NC(=O)[C@H](Cc2cccc(Cl)c2)N(C)C(=O)[C@H](C(C)C)NC(=O)[C@H](C)NC(=O)CSC[C@@H](C(=O)NCCOCCOCCOCCOCCC(N)=O)NC(=O)[C@H](Cc2ccc(O)cc2)N(C)C(=O)[C@H](Cc2cccc(C(=O)O)c2)NC(=O)[C@H](CCC(=O)NCCOCCOCCOCCOCCOCCOCCOCCOC)NC(=O)[C@H](CCCNC(=N)N)NC(=O)[C@H]([C@@H](C)CC)NC1=O [compound 84] ({CH2CO}-AV[NMePhe(3-Cl)]V[Trp(1-CH2COOH)]NY[3Pal]IIRE(NH(CH2CH2O)8Me)[Phe(3-COOH)][NMeY]C[PEG4]-NH2; thioether N-15) | 0.001 to 0.1
6 | CC[C@H](C)[C@@H]1NC(=O)[C@H](Cc2cccnc2)NC(=O)[C@H](Cc2ccc(N)nc2)NC(=O)[C@H](CC(N)=O)NC(=O)[C@H](Cc2cn(CC(=O)O)c3ccccc23)NC(=O)[C@H](C(C)C)NC(=O)[C@H](Cc2cccc(Cl)c2)N(C)C(=O)[C@H](C(C)C)NC(=O)[C@H](C)NC(=O)CSC[C@@H](C(=O)NCCOCCOCCOCCOCCC(N)=O)NC(=O)[C@H](Cc2ccc(O)cc2)N(C)C(=O)[C@H](Cc2ccncc2)NC(=O)[C@H](CCC(=O)NCCOCCOCCOCCOCCOCCOCCOCCOC)NC(=O)[C@H](CCCNC(=N)N)NC(=O)[C@H]([C@@H](C)CC)NC1=O [compound 86] ({CH2CO}-AV[NMePhe(3-Cl)]V[Trp(1-CH2COOH)]N[3Pal(6-NH2)][3Pal]IIRE(NH(CH2CH2O)8Me)[4Pal][NMeY]C[PEG4]-NH2; thioether N-15) | 0.1 to 1
7 | CC[C@H](C)[C@@H]1NC(=O)[C@H](Cc2ccc(OCC(=O)O)cc2)NC(=O)[C@H](Cc2ccc(N)nc2)NC(=O)[C@H](CC(N)=O)NC(=O)[C@H](Cc2cn(CC(=O)O)c3ccccc23)NC(=O)[C@H](C(C)C)NC(=O)[C@H](Cc2cccc(Cl)c2)N(C)C(=O)[C@H](C(C)C)NC(=O)[C@H](C)NC(=O)CSC[C@@H](C(=O)NCCOCCOCCOCCOCCC(N)=O)NC(=O)[C@H](Cc2ccc(O)cc2)N(C)C(=O)[C@H](Cc2cccc(C(=O)O)c2)NC(=O)[C@H](CCC(=O)NCCOCCOCCOCCOCCOCCOCCOCCOC)NC(=O)[C@H](CCCNC(=N)N)NC(=O)[C@H]([C@@H](C)CC)NC1=O [compound 87] ({CH2CO}-AV[NMePhe(3-Cl)]V[Trp(1-CH2COOH)]N[3Pal(6-NH2)]Y(Carboxymethyl)IIRE(NH(CH2CH2O)8Me)[Phe(3-COOH)][NMeY]C[PEG4]-NH2; thioether N-15) | 0.1 to 1

Continued, values first:

Row | Kd [µM] | Compound
8 | 0.001 to 0.1 | CC[C@H](C)[C@@H]1NC(=O)[C@H](Cc2ccc(OC)cc2)NC(=O)[C@H](Cc2ccc(O)cc2)NC(=O)[C@H](CC(N)=O)NC(=O)[C@H](Cc2cn(CC(=O)O)c3ccccc23)NC(=O)[C@H](C(C)C)NC(=O)[C@H](Cc2cccc(Cl)c2)N(C)C(=O)[C@H](C(C)C)NC(=O)[C@H](C)NC(=O)CSC[C@@H](C(=O)NCCOCCOCCOCCOCCC(N)=O)NC(=O)[C@H](Cc2ccc(O)cc2)N(C)C(=O)[C@H](Cc2cccc(C(=O)O)c2)NC(=O)[C@H](CCC(=O)NCCOCCOCCOCCOCCOCCOCCOCCOC)NC(=O)[C@H](CCCNC(=N)N)NC(=O)[C@H]([C@@H](C)CC)NC1=O [compound 77] ({CH2CO}-AV[NMePhe(3-Cl)]V[Trp(1-CH2COOH)]NYY(Me)IIRE(NH(CH2CH2O)8Me)[Phe(3-COOH)][NMeY]C[PEG4]-NH2; thioether N-15)
9 | 0.001 to 0.1 | CC[C@H](C)[C@@H]1NC(=O)[C@H](Cc2ccc(OCC(=O)O)cc2)NC(=O)[C@H](Cc2ccc(N)nc2)NC(=O)[C@H](CC(N)=O)NC(=O)[C@H](Cc2cn(CC(=O)O)c3ccccc23)NC(=O)[C@H](C(C)C)NC(=O)[C@H](Cc2cccc(Cl)c2)N(C)C(=O)[C@H](C(C)C)NC(=O)[C@H](C)NC(=O)CSC[C@@H](C(=O)NCCOCCOCCOCCOCCC(N)=O)NC(=O)[C@H](Cc2ccc(O)cc2)N(C)C(=O)[C@H](Cc2cccc(C(=O)O)c2)NC(=O)[C@H](CCCNC(=N)N)NC(=O)[C@H](CCCNC(=N)N)NC(=O)[C@H]([C@@H](C)CC)NC1=O [compound 81] ({CH2CO}-AV[NMePhe(3-Cl)]V[Trp(1-CH2COOH)]N[3Pal(6-NH2)]Y(Carboxymethyl)IIRR[Phe(3-COOH)][NMeY]C[PEG4]-NH2; thioether N-15)
10 | 0.001 to 0.1 | CC[C@H](C)[C@@H]1NC(=O)[C@H](Cc2ccc(OCC(=O)O)cc2)NC(=O)[C@H](Cc2ccc(O)cc2)NC(=O)[C@H](CC(N)=O)NC(=O)[C@H](Cc2cn(CC(=O)O)c3ccccc23)NC(=O)[C@H](C(C)C)NC(=O)[C@H](Cc2cccc(Cl)c2)N(C)C(=O)[C@H](C(C)C)NC(=O)[C@H](C)NC(=O)CSC[C@@H](C(=O)NCCOCCOCCOCCOCCC(N)=O)NC(=O)[C@H](Cc2ccc(O)cc2)N(C)C(=O)[C@H](Cc2ccncc2)NC(=O)[C@H](CCC(=O)NCCOCCOCCOCCOCCOCCOCCOCCOC)NC(=O)[C@H](CCCNC(=N)N)NC(=O)[C@H]([C@@H](C)CC)NC1=O [compound 82] ({CH2CO}-AV[NMePhe(3-Cl)]V[Trp(1-CH2COOH)]NYY(Carboxymethyl)IIRE(NH(CH2CH2O)8Me)[4Pal][NMeY]C[PEG4]-NH2; thioether N-15)
11 | 0.1 to 1 | CC[C@H](C)[C@@H]1NC(=O)[C@H](Cc2cccnc2)NC(=O)[C@H](Cc2ccc(N)nc2)NC(=O)[C@H](CC(N)=O)NC(=O)[C@H](Cc2cn(CC(=O)O)c3ccccc23)NC(=O)[C@H](C(C)C)NC(=O)[C@H](Cc2cccc(Cl)c2)N(C)C(=O)[C@H](C(C)C)NC(=O)[C@H](C)NC(=O)CSC[C@@H](C(=O)NCCOCCOCCOCCOCCC(N)=O)NC(=O)[C@H](Cc2ccc(O)cc2)N(C)C(=O)[C@H](Cc2cccc(C(=O)O)c2)NC(=O)[C@H](CCC(=O)NCCOCCOCCOCCOCCOCCOCCOCCOC)NC(=O)[C@H](CCCNC(=N)N)NC(=O)[C@H]([C@@H](C)CC)NC1=O [compound 85] ({CH2CO}-AV[NMePhe(3-Cl)]V[Trp(1-CH2COOH)]N[3Pal(6-NH2)][3Pal]IIRE(NH(CH2CH2O)8Me)[Phe(3-COOH)][NMeY]C[PEG4]-NH2; thioether N-15)
12 | 0.1 to 1 | CC[C@H](C)[C@@H]1NC(=O)[C@H](Cc2ccc(OCC(=O)O)cc2)NC(=O)[C@H](Cc2ccc(N)nc2)NC(=O)[C@H](CC(N)=O)NC(=O)[C@H](Cc2cn(CC(=O)O)c3ccccc23)NC(=O)[C@H](C(C)C)NC(=O)[C@H](Cc2cccc(Cl)c2)N(C)C(=O)[C@H](C(C)C)NC(=O)[C@H](C)NC(=O)CSC[C@@H](C(=O)NCCOCCOCCOCCOCCC(N)=O)NC(=O)[C@H](Cc2ccc(O)cc2)N(C)C(=O)[C@H](Cc2ccncc2)NC(=O)[C@H](CCC(=O)NCCOCCOCCOCCOCCOCCOCCOCCOC)NC(=O)[C@H](CCCNC(=N)N)NC(=O)[C@H]([C@@H](C)CC)NC1=O [compound 88] ({CH2CO}-AV[NMePhe(3-Cl)]V[Trp(1-CH2COOH)]N[3Pal(6-NH2)]Y(Carboxymethyl)IIRE(NH(CH2CH2O)8Me)[4Pal][NMeY]C[PEG4]-NH2; thioether N-15)
